The results in this text go back to patent US12404241B2 (Celgene Corporation, priority 2018, dated 2025).

This test deals with T1, AR (Homo sapiens, UniProt P10275).
T1 construct: endogenous in cells; host or cells: VCaP cells
T1 sequence (P10275 1-920): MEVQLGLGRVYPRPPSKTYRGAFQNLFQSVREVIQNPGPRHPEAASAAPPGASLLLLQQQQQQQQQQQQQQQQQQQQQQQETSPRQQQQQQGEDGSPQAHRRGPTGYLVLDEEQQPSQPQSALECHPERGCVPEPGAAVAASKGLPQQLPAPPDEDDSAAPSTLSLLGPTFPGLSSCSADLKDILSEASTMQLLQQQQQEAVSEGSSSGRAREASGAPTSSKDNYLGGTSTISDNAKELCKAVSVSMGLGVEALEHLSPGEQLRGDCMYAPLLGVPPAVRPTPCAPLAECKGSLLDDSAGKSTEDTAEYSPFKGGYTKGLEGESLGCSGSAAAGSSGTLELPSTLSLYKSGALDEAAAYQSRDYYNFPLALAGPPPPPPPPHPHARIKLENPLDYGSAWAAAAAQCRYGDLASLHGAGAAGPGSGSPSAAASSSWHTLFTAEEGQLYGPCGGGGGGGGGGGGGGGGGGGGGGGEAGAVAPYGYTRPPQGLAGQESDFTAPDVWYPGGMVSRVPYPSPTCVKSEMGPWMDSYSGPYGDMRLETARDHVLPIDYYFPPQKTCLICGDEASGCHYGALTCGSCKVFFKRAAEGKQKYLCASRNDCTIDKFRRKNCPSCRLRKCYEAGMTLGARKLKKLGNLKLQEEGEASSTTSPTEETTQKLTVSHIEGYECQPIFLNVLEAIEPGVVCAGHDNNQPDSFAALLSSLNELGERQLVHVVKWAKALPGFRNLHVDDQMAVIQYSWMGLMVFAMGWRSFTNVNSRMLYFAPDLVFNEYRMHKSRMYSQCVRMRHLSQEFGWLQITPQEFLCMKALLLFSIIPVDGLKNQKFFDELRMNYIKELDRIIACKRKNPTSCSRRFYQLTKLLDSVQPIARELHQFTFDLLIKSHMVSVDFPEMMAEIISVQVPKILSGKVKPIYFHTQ
In words: VCAP AR Degradation Assay. The format is cell-based. The following applies: for Y (AR degradation efficiency, % of DMSO control): class symbols *; for DC50: class symbols A-C, read-out: DC50. A digest of the protocol: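 24 h, 37 °C, VCaP (DMEM/8% FBS), 10-pt 1:3 dilutions from 5 μM final top, 0.1% DMSO ctrl. Lysis on ice/4 °C 1 h; total AR by sandwich ELISA, normalized to DMSO. 4PL fit → DC50, EC50, Y (min AR level).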

Some results are limits rather than exact numbers.

By DC50 is commonly meant the midpoint of the concentration-degradation curve.

Take `CCc1cc(N2C(=S)N(c3ccc(C#N)c(C(F)(F)F)c3)C(=O)C2(C)C)ccc1OCCN1C[C@@H](C)N(CC(=O)Nc2cc(F)cc(NC3CCC(=O)NC3=O)c2)[C@@H](C)C1` (stereo partly drawn) [Example 283, 2-((2R,6S)-4-(2-(4-(3-(4-cyano-3-(trifluoromethyl)phenyl)-5,5-dimethyl-4-oxo-2-thioxoimidazolidin-1-yl)-2-ethylphenoxy)ethyl)-2,6-dimethylpiperazin-1-yl)-N-(3-(2,6-dioxopiperidin-3-ylamino)-5-fluorophenyl)acetamide]: the “Y (AR degradation efficiency, % of DMSO control)” value was “* (0<Y<=25%)” and the DC50 was less than 100 nM.
`CCc1cc(N2C(=S)N(c3ccc(C#N)c(C(F)(F)F)c3)C(=O)C2(C)C)ccc1CCCN1C[C@@H](C)N(CC(=O)Nc2cccc(NC3CCC(=O)NC3=O)c2)[C@@H](C)C1` (stereo partly drawn) [Example 284, 2-((2R,6S)-4-(3-(4-(3-(4-cyano-3-(trifluoromethyl)phenyl)-5,5-dimethyl-4-oxo-2-thioxoimidazolidin-1-yl)-2-ethylphenyl)propyl)-2,6-dimethylpiperazin-1-yl)-N-(3-(2,6-dioxopiperidin-3-ylamino)phenyl)acetamide]: the “Y (AR degradation efficiency, % of DMSO control)” value is given as “* (0<Y<=25%)” and the DC50 was less than 100 nM.
For `CCc1cc(N2C(=S)N(c3ccc(C#N)c(C(F)(F)F)c3)C(=O)C2(C)C)ccc1OCCN1C[C@@H](C)N(CC(=O)Nc2cccc(N[C@H]3CCC(=O)NC3=O)c2)[C@@H](C)C1` [Example 285, 2-((2R,6S)-4-(2-(4-(3-(4-cyano-3-(trifluoromethyl)phenyl)-5,5-dimethyl-4-oxo-2-thioxoimidazolidin-1-yl)-2-ethylphenoxy)ethyl)-2,6-dimethylpiperazin-1-yl)-N-(3-((S)-2,6-dioxopiperidin-3-ylamino)phenyl)acetamide], the “Y (AR degradation efficiency, % of DMSO control)” value is on record as “* (0<Y<=25%)” and the DC50 was less than 100 nM.
Regarding `CCc1cc(N2C(=S)N(c3ccc(C#N)c(C(F)(F)F)c3)C(=O)C2(C)C)ccc1OCCN1C[C@@H](C)N(CC(=O)Nc2cccc(N[C@@H]3CCC(=O)NC3=O)c2)[C@@H](C)C1` [Example 286, 2-((2R,6S)-4-(2-(4-(3-(4-cyano-3-(trifluoromethyl)phenyl)-5,5-dimethyl-4-oxo-2-thioxoimidazolidin-1-yl)-2-ethylphenoxy)ethyl)-2,6-dimethylpiperazin-1-yl)-N-(3-((R)-2,6-dioxopiperidin-3-ylamino)phenyl)acetamide], the “Y (AR degradation efficiency, % of DMSO control)” value is recorded as “* (0<Y<=25%)” and the DC50 was less than 100 nM.
For `C[C@@H]1CN(CCCc2ccc(N3C(=S)N(c4ccc(C#N)c(C(F)(F)F)c4)C(=O)C3(C)C)cc2F)C[C@H](C)N1CC(=O)Nc1cccc(NC2CCC(=O)NC2=O)c1` (stereo partly drawn) [Example 287, 2-((2R,6S)-4-(3-(4-(3-(4-cyano-3-(trifluoromethyl)phenyl)-5,5-dimethyl-4-oxo-2-thioxoimidazolidin-1-yl)-2-fluorophenyl)propyl)-2,6-dimethylpiperazin-1-yl)-N-(3-(2,6-dioxopiperidin-3-ylamino)phenyl)acetamide], in that order: “* (0<Y<=25%)” and less than 100 nM.
The corresponding values for `C[C@@H]1CN(CCOc2ccc(N3C(=S)N(c4ccc(C#N)c(C(F)(F)F)c4)C(=O)C3(C)C)cc2C2CC2)C[C@H](C)N1CC(=O)Nc1cccc(N[C@@H]2CCC(=O)NC2=O)c1` [Example 288, 2-((2R,6S)-4-(2-(4-(3-(4-cyano-3-(trifluoromethyl)phenyl)-5,5-dimethyl-4-oxo-2-thioxoimidazolidin-1-yl)-2-cyclopropylphenoxy)ethyl)-2,6-dimethylpiperazin-1-yl)-N-(3-((R)-2,6-dioxopiperidin-3-ylamino)phenyl)acetamide] are “* (0<Y<=25%)” and less than 100 nM.
The corresponding values for `C[C@@H]1CN(CCOc2ccc(N3C(=S)N(c4ccc(C#N)c(C(F)(F)F)c4)C(=O)C3(C)C)cc2C2CC2)C[C@H](C)N1CC(=O)Nc1cccc(N[C@H]2CCC(=O)NC2=O)c1` [Example 289, 2-((2R,6S)-4-(2-(4-(3-(4-cyano-3-(trifluoromethyl)phenyl)-5,5-dimethyl-4-oxo-2-thioxoimidazolidin-1-yl)-2-cyclopropylphenoxy)ethyl)-2,6-dimethylpiperazin-1-yl)-N-(3-((S)-2,6-dioxopiperidin-3-ylamino)phenyl)acetamide] are “* (0<Y<=25%)” and less than 100 nM.
Regarding `CCc1cc(N2C(=S)N(c3ccc(C#N)c(Cl)c3)C(=O)C2(C)C)ccc1OCCN1C[C@@H](C)N(CC(=O)Nc2cccc(NC3CCC(=O)NC3=O)c2)[C@@H](C)C1` (stereo partly drawn) [Example 291, 2-((2S,6R)-4-(2-(4-(3-(3-chloro-4-cyanophenyl)-5,5-dimethyl-4-oxo-2-thioxoimidazolidin-1-yl)-2-ethylphenoxy)ethyl)-2,6-dimethylpiperazin-1-yl)-N-(3-((2,6-dioxopiperidin-3-yl)amino)phenyl)acetamide], the “Y (AR degradation efficiency, % of DMSO control)” value is reported as “* (0<Y<=25%)” and the DC50 is less than 100 nM.
